Assay results from paper PMC10525135, “Computationally Designed AMPs with Antibacterial and Antibiofilm Activity against MDR Acinetobacter baumannii” (Antibiotics, 2023).
Values after ≈ are worked out from the molar mass of the structure shown. Where two headings read alike, the source gives them in different places. Marks after values point to notes of the source that are not given here. Residues, ends and D or L forms follow the SMILES beside them. No end group written: not given here.

Key:
[1] = tested on: A. baumannii strains AB5075, BAA-1710, -1794, and -1800; type: cell-based, Acinetobacter baumannii
Protocol: (§1) Minimum inhibitory concentration (n = 3) was performed according to the CLSI protocols with a minor modification, in which Difco Mueller Hinton broth (BD 275730, Franklin Lakes, NJ, USA) was used instead of cation-adjusted Mueller Hinton broth following Wiegand et al.’s standardized protocol for testing AMPs. Bacteria were grown overnight in an opaque colony, and the concentration was determined using McFarland’s technique. An aliquot of 50 µL of 1 × 10^6 CFU/mL of bacteria was incubated with a decreasing series of peptide concentration to achieve a final bacterial concentration of 5 × 10^5 CFU/mL at 37 °C 5% CO2 for 20–24 h in Difco Mueller Hinton broth. Dilutions were performed in a 96-well polypropylene plate (Corning 3879, Corning, NY, USA). This is critical to avoid peptide binding to the plate. Results were obtained by measuring bacterial growth at OD600 nm. LL-37 and polymyxin B were used as positive controls. Samples containing only the medium and medium with peptides were used as the sterility controls and samples containing only bacteria in MHB served as the growth control. Each experiment was performed twice, and one representative experiment is shown.

A. baumannii BAA-1710 = type: cell-based, Acinetobacter baumannii
Protocol: as §1

A. baumannii BAA-1794 = type: cell-based, Acinetobacter baumannii
Protocol: as §1

[2] = tested on: A. baumannii AB5075 (MRSN959); type: cell-based, Acinetobacter baumannii
Protocol: as §1

A. baumannii BAA-1800 = type: cell-based, Acinetobacter baumannii
Protocol: as §1

[3] = tested on: defibrinated human red blood cells; test: Hemolysis; type: cell-based; conditions: 2% hRBC in PBS, 1 h 37 °C, OD540, relative to Triton X-100, n = 3
Protocol: To measure the hemolytic activity of peptides, 2% human red blood cells were added to various dilutions of peptide reconstituted in PBS in a sterile U-bottom polypropylene 96-well plate following a protocol developed in our laboratory Briefly, defibrinated human blood was obtained from de-identified healthy donors from BioIVT (Westbury, NY, USA). An aliquot (1 mL) of blood was centrifuged at 1600× g for 10 min and plasma was discarded, and then 1 mL of sterile 1× PBS (HyClone) was used to wash red blood cells at least three times. In the last wash step, the supernatant was discarded, and the pallet was resuspended with 750 µL of sterile PBS. RBC suspension (2% RBC) was prepared by adding 200 µL of washed RBCs to 9.8 mL of sterile 1× PBS. A total of 50 µL of 2% RBCs were added to each well (n = 3) containing diluted peptides, resulting in a final peptide concentration of 100, 10, and 1 μg/mL. A total of 2% RBCs with 1× PBS alone served as the negative control (no peptide), and 2% RBC in Triton X-100 served as the positive control. The plate was incubated for 1 h at 37 °C and then centrifuged at 1000 rpm for 2 min. The supernatant was transferred to a fresh 96-well plate (tissue culture-treated Falcon 353072) and read at OD540. The percentage of hemolysis was calculated based on the 100% hemolysis control (Triton X-100). The experiment was repeated twice.

[4] = tested on: A. baumannii BAA-1800 biofilm
Protocol: The MBIC assay measures the lowest concentration of a compound that inhibits the biofilm formation of an organism. A series of decreasing peptide concentrations starting from 64 μg/mL to 0.25 μg/mL (100 µL) were incubated with 1 × 10^5 CFU of A. baumannii in 100 µL of Tryptic Soy broth (TSB) in a polystyrene 96-well plate (Falcon 353072, Corning, NY, USA) for 24 h at 37 °C to assess biofilm formation inhibition, as described previously with minor modifications. After the incubation of bacteria with AMPs, OD600 nm was measured for approximate bacterial growth. Media were carefully removed, and wells (n = 3) were rinsed with tap water. Plates were heat-fixed at 70 °C for 1 h, and 200 µL of 0.1% crystal violet diluted in deionized water were added to wells and allowed to incubate for 15 min. Excess stain was rinsed off with tap water, and the plates were air-dried. After that, 200 µL of 33% glacial acetic acid was added to resolubilize the stain, and biofilm mass was measured by a spectrophotometric reading at OD590. Bacteria alone (no treatment) served as the 100% biofilm control, and media alone and media with a peptide/drug were used as the sterility control and the 0% biofilm control.

[5] = tested on: AB5075 pre-formed (24 h) biofilm; type: cell-based, Acinetobacter baumannii
Protocol: The MBEC assay measures the lowest concentration of an antimicrobial agent that can eradicate established biofilms. Using the MBEC assay in the Biofilm Inoculator 96-well base (Innovotech Cat #1911, Edmonton, AB, Canada) and following the manufacturer’s protocol, 150 µL (n = 6) of 1 × 10^6 CFU/mL of AB5075 in TSB was incubated for 24 h at 37 °C at 110 rpm for biofilm formation. The lid containing pegs was rinsed with sterile PBS for 5 min, and then the lid was placed in a peptide challenge polypropylene 96-well plate containing a decreasing series of drug concentrations and incubated for 24 h at 37 °C at 110 rpm. Pegs were washed three times with tap water, heat-fixed for 70 °C for 1 h, and stained with 0.1% crystal violet for 15 min. Excess stain was rinsed off with tap water and allowed to dry. Stained pegs were resolubilized with 200 µL of 33% glacial acetic acid. OD590 was obtained to measure the remaining biofilm. Pegs with only bacteria served as the growth control and 100% biofilm control. Media alone and media with a peptide/drug served as the sterility controls. […] The experiment was performed twice.

AB5075 = tested on: AB5075
Protocol: Bacteria were grown in 1 mL of MHB for 24 h. Experimental tubes that show growth in the presence of peptide/drug concentration were diluted 1:100. […] Colistin is reported to induce resistance within approximately 5–7 days for A. baumannii.

[6] = summary over MDR A. baumannii strains of Table 3
[7] = A. baumannii BAA-1710, Difco Mueller Hinton broth, 5 × 10^5 CFU/mL, 37 °C 5% CO2, 20–24 h, OD600, n = 3
[8] = A. baumannii BAA-1794, Difco Mueller Hinton broth, 5 × 10^5 CFU/mL, 37 °C 5% CO2, 20–24 h, OD600, n = 3
[9] = A. baumannii BAA-1800, TSB, 24 h 37 °C, crystal violet
[10] = A. baumannii BAA-1800, TSB, polystyrene plate, 24 h 37 °C, crystal violet OD590, n = 3
[11] = MBEC100, AB5075 24 h pre-formed biofilm on pegs, 24 h challenge, crystal violet OD590, n = 6
[12] = AB5075 passaged with subinhibitory drug

In the case of FLKKIWKLLGKLL-NH2 [HRZN-16], the “MIC across the tested strains” value ([1]; BAA-1710) is reported as 16 µg/mL, the MIC (A. baumannii BAA-1710; BAA-1710) is reported as 16 µg/mL and the MIC (A. baumannii BAA-1794; BAA-1794) is reported as 16 µg/mL. It also gave an MIC ([2]; AB5075 (MRSN959)) of 16 µg/mL and an MIC (A. baumannii BAA-1800; BAA-1800) of 16 µg/mL.

`CC[C@H](C)[C@H](NC(=O)[C@H](CCCCN)NC(=O)[C@H](CCC(=O)O)NC(=O)[C@H](CCCCN)NC(=O)[C@H](CO)NC(=O)[C@H](CCCCN)NC(=O)[C@H](CCCNC(=N)N)NC(=O)[C@H](Cc1ccccc1)NC(=O)[C@H](Cc1ccccc1)NC(=O)[C@H](CC(=O)O)NC(=O)CNC(=O)[C@H](CC(C)C)NC(=O)[C@@H](N)CC(C)C)C(=O)NCC(=O)N[C@@H](CCCCN)C(=O)N[C@@H](CCC(=O)O)C(=O)N[C@@H](Cc1ccccc1)C(=O)N[C@@H](CCCCN)C(=O)N[C@@H](CCCNC(=N)N)C(=O)N[C@H](C(=O)N[C@H](C(=O)N[C@@H](CCC(N)=O)C(=O)N[C@@H](CCCNC(=N)N)C(=O)N[C@H](C(=O)N[C@@H](CCCCN)C(=O)N[C@@H](CC(=O)O)C(=O)N[C@@H](Cc1ccccc1)C(=O)N[C@@H](CC(C)C)C(=O)N[C@@H](CCCNC(=N)N)C(=O)N[C@@H](CC(N)=O)C(=O)N[C@@H](CC(C)C)C(=O)N[C@H](C(=O)N1CCC[C@H]1C(=O)N[C@@H](CCCNC(=N)N)C(=O)N[C@H](C(=O)N[C@@H](CCC(=O)O)C(=O)N[C@@H](CO)C(=O)O)[C@@H](C)O)C(C)C)[C@@H](C)CC)C(C)C)[C@@H](C)CC` [LL-37] was tested, and the Hemolysis ([3]; 10 µg/mL) was 5.4%, the Hemolysis ([3]; 100 µg/mL) was 22% and the “MIC across the tested strains” value [1, 6] was 8 to 32 µg/mL. It also gave an MIC (A. baumannii BAA-1710; [7]) of 32 µg/mL (≈ 7.12 µM), an MIC (A. baumannii BAA-1794; [8]) of 16 to 32 µg/mL and an MIC (A. baumannii BAA-1794; A. baumannii BAA-1794, experiment shown in Figure S4) of 32 µg/mL (≈ 7.12 µM). The MBIC50 [4, 9] was ~ 32 µg/mL, the MBIC100 [4, 10] was 64 µg/mL and the MBEC50 ([5]; AB5075 24 h pre-formed biofilm, crystal violet) was 4 µg/mL. The MBEC [5, 11] was ~32 µg/mL.

For `CC[C@H](C)CCCCC(=O)N[C@@H](CCN)C(=O)N[C@H](C(=O)N[C@@H](CCN)C(=O)N[C@H]1CCNC(=O)[C@H]([C@@H](C)O)NC(=O)[C@H](CCN)NC(=O)[C@H](CCN)NC(=O)[C@H](CC(C)C)NC(=O)[C@@H](CC(C)C)NC(=O)[C@H](CCN)NC1=O)[C@@H](C)O` [colistin] (HELM PEPTIDE1{[CC[C@H](C)CCCCC(=O)[*:2]].[Dab].T.[Dab].[Dab].[Dab].[dL].L.[Dab].[Dab].T}$PEPTIDE1,PEPTIDE1,5:R3-11:R2$$$V2.0; N-terminus assumed; bridges inferred), the “MIC fold change reached, compared to the initial growth-inhibitory concentration” value (AB5075; AB5075, exposure for 15 days) was 512 × MIC, the MIC before exposure (AB5075; AB5075, initial MIC (passage 0)) was 0.5 µg/mL (≈ 0.428 µM) and the “MIC after the fifth day of exposure” value (AB5075; [12]) was 64 µg/mL. The “MIC fold change after the fifth day” value (AB5075; [12]) was 128 MIC fold.

FLPWISKFLGKIL-NH2 [HRZN-15] was tested, and the “MIC across the tested strains” value ([1]; BAA-1710) was 4 µg/mL, the MIC (A. baumannii BAA-1710; BAA-1710) was 4 µg/mL and the MIC (A. baumannii BAA-1794; BAA-1794) was 4 µg/mL. The MIC (A. baumannii BAA-1800; BAA-1800) was 4 µg/mL, the MBIC50 ([4]; BAA-1800, 24 h) was ~ 4 µg/mL and the MBIC100 ([4]; BAA-1800, 24 h) was 8 µg/mL. For the same compound, the “MIC at the 10th passage” value (AB5075; AB5075 passaged with peptide) was 8 µg/mL, the MBEC ([5]; 24 h) was 16 µg/mL and the MBEC50 ([5]; 24 h) was 8 µg/mL.

With FLWRISKFLGKKL-NH2 [HRZN-13] the Hemolysis ([3]; 100 µg/mL) was 0.7%, the “MIC across the tested strains” value [1, 6] was 32 to 64 µg/mL and the MIC (A. baumannii BAA-1710; [7]) was 32 µg/mL. The MIC (A. baumannii BAA-1794; [8]) was 64 µg/mL, the MIC ([2]; A. baumannii AB5075 (MRSN959), Difco Mueller Hinton broth, 5 × 10^5 CFU/mL, 37 °C 5% CO2, 20–24 h, OD600, n = 3) was 32 µg/mL and the MIC (A. baumannii BAA-1800; A. baumannii BAA-1800, Difco Mueller Hinton broth, 5 × 10^5 CFU/mL, 37 °C 5% CO2, 20–24 h, OD600, n = 3) was 64 µg/mL.

FLWRISKFLGRKL-NH2 [HRZN-14] was tested, and the “MIC across the tested strains” value ([1]; BAA-1710) was 16 to 64 µg/mL, the MIC (A. baumannii BAA-1710; BAA-1710) was 32 µg/mL and the MIC (A. baumannii BAA-1794; BAA-1794) was 64 µg/mL. For the same compound, the MIC (A. baumannii BAA-1800; BAA-1800) was 32 µg/mL.

With VRLIVAVRIWRR-NH2 [IDR-1018] the MBIC50 [4, 9] was ~ 32 µg/mL, the MBIC100 [4, 10] was >64 * µg/mL and the MBEC [5, 11] was >32 µg/mL.

In the case of KLWKLLKKLGRLL-NH2 [HRZN-17], the “MIC across the tested strains” value ([1]; BAA-1710) is reported as 32 µg/mL, the MIC (A. baumannii BAA-1710; BAA-1710) is reported as 32 µg/mL and the MIC (A. baumannii BAA-1794; BAA-1794) is reported as 32 µg/mL. It also gave an MIC ([2]; AB5075 (MRSN959)) of 32 µg/mL and an MIC (A. baumannii BAA-1800; BAA-1800) of 32 µg/mL.
